Test results as given in PubChem BioAssay (NCI).
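Cultured in 96-well plates, cells were exposed to test compound for 48 hours across five concentrations. GI50 marks 50% less growth. TGI is the concentration that stops growth completely.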

Legend:
Test in all cases: NCI-60 cell line screen, 48 h
SK-MEL-28 melanoma = tested on: SK-MEL-28 melanoma
SF-539 CNS = tested on: SF-539 CNS
NCI-H522 lung = tested on: NCI-H522 lung
786-0 renal = tested on: 786-0 renal
HCT-15 colon = tested on: HCT-15 colon
SNB-75 CNS = tested on: SNB-75 CNS
HS 578T breast = tested on: HS 578T breast
UACC-257 melanoma = tested on: UACC-257 melanoma
BT-549 breast = tested on: BT-549 breast
RXF 393 renal = tested on: RXF 393 renal
KM12 colon = tested on: KM12 colon
A549 NSCLC = tested on: A549 NSCLC
SF-268 CNS = tested on: SF-268 CNS
OVCAR-8 ovarian = tested on: OVCAR-8 ovarian
MCF7 breast = tested on: MCF7 breast
OVCAR-5 ovarian = tested on: OVCAR-5 ovarian
NCI/ADR-RES ovarian = tested on: NCI/ADR-RES ovarian
SN12C renal = tested on: SN12C renal
NCI-H23 lung = tested on: NCI-H23 lung
IGROV1 ovarian = tested on: IGROV1 ovarian
MOLT-4 leukemia = tested on: MOLT-4 leukemia
U251 CNS = tested on: U251 CNS
HT29 colon = tested on: HT29 colon
SR leukemia = tested on: SR leukemia
UACC-62 melanoma = tested on: UACC-62 melanoma
NCI-H226 lung = tested on: NCI-H226 lung
MALME-3M melanoma = tested on: MALME-3M melanoma
OVCAR-4 ovarian = tested on: OVCAR-4 ovarian
RPMI-8226 leukemia = tested on: RPMI-8226 leukemia
K-562 leukemia = tested on: K-562 leukemia
UO-31 renal = tested on: UO-31 renal
PC-3 prostate = tested on: PC-3 prostate
TK-10 renal = tested on: TK-10 renal
HOP-62 NSCLC = tested on: HOP-62 NSCLC
T-47D breast = tested on: T-47D breast
MDA-MB-468 breast = tested on: MDA-MB-468 breast
CAKI-1 renal = tested on: CAKI-1 renal
SNB-19 CNS = tested on: SNB-19 CNS
CCRF-CEM leukemia = tested on: CCRF-CEM leukemia
EKVX NSCLC = tested on: EKVX NSCLC
NCI-H460 lung = tested on: NCI-H460 lung
HCT-116 colon = tested on: HCT-116 colon
SF-295 CNS = tested on: SF-295 CNS
HL-60(TB) leukemia = tested on: HL-60(TB) leukemia
OVCAR-3 ovarian = tested on: OVCAR-3 ovarian
LOX IMVI melanoma = tested on: LOX IMVI melanoma
HOP-92 NSCLC = tested on: HOP-92 NSCLC
SW-620 colon = tested on: SW-620 colon
MDA-MB-435 = tested on: MDA-MB-435
ACHN renal = tested on: ACHN renal
SK-MEL-2 melanoma = tested on: SK-MEL-2 melanoma
MDA-MB-231 breast = tested on: MDA-MB-231 breast
COLO 205 colon = tested on: COLO 205 colon
HCC-2998 colon = tested on: HCC-2998 colon
DU-145 prostate = tested on: DU-145 prostate
A498 renal = tested on: A498 renal
SK-OV-3 ovarian = tested on: SK-OV-3 ovarian

COC(=O)C[C@](O)(CCC(C)C)C(=O)O[C@H]1C(OC)=C[C@@]23CCCN2CCc2cc4c(cc2[C@@H]13)OCO4
TGI (SK-MEL-28 melanoma): > 10.6 µM | GI50 (SF-539 CNS): 3.17 µM | TGI (SF-539 CNS): > 8.07 µM | GI50 (NCI-H522 lung): 3.3 µM | TGI (NCI-H522 lung): > 8.77 µM | TGI (786-0 renal): > 12.3 µM | GI50 (HCT-15 colon): 4.08 µM | TGI (HCT-15 colon): > 9.64 µM | TGI (SNB-75 CNS): > 11 µM | TGI (HS 578T breast): > 11.1 µM | TGI (UACC-257 melanoma): > 12.7 µM | TGI (BT-549 breast): > 10.1 µM | GI50 (RXF 393 renal): 2.65 µM | TGI (KM12 colon): > 15.6 µM | TGI (A549 NSCLC): > 13.6 µM | TGI (SF-268 CNS): > 19.6 µM | TGI (OVCAR-8 ovarian): > 13.8 µM | GI50 (MCF7 breast): 1.37 µM | TGI (OVCAR-5 ovarian): > 15.7 µM | GI50 (NCI/ADR-RES ovarian): 1.5 µM | TGI (NCI/ADR-RES ovarian): 12 µM | TGI (SN12C renal): > 19.3 µM | TGI (NCI-H23 lung): > 9.5 µM | TGI (IGROV1 ovarian): > 15.1 µM | GI50 (MOLT-4 leukemia): 10.5 µM | TGI (MOLT-4 leukemia): > 40.5 µM | TGI (U251 CNS): > 11.9 µM | GI50 (HT29 colon): 4.69 µM | TGI (HT29 colon): > 14 µM | GI50 (SR leukemia): 17.1 µM | TGI (SR leukemia): > 40.5 µM | TGI (UACC-62 melanoma): > 14.6 µM | GI50 (NCI-H226 lung): 2.57 µM | TGI (NCI-H226 lung): > 10.2 µM | GI50 (MALME-3M melanoma): 3.62 µM | TGI (MALME-3M melanoma): > 8.33 µM | TGI (OVCAR-4 ovarian): > 15.5 µM | TGI (RPMI-8226 leukemia): > 8.64 µM | GI50 (K-562 leukemia): 2.73 µM | TGI (K-562 leukemia): > 40.5 µM | TGI (UO-31 renal): > 14.8 µM | TGI (PC-3 prostate): > 13.4 µM | GI50 (TK-10 renal): > 8 µM | TGI (TK-10 renal): > 37.1 µM | TGI (HOP-62 NSCLC): > 21.9 µM | TGI (T-47D breast): > 22.9 µM | GI50 (MDA-MB-468 breast): 1.8 µM | TGI (MDA-MB-468 breast): > 8.31 µM | TGI (CAKI-1 renal): > 25.1 µM | GI50 (SNB-19 CNS): 3.91 µM | TGI (SNB-19 CNS): > 10.2 µM | GI50 (CCRF-CEM leukemia): 4.62 µM | TGI (CCRF-CEM leukemia): > 11.2 µM | TGI (EKVX NSCLC): > 16.8 µM | GI50 (NCI-H460 lung): 1.51 µM | GI50 (HCT-116 colon): 16.8 µM | TGI (HCT-116 colon): > 40.5 µM | TGI (SF-295 CNS): > 11.2 µM | GI50 (HL-60(TB) leukemia): 2.4 µM | TGI (OVCAR-3 ovarian): > 12.9 µM | GI50 (LOX IMVI melanoma): 2.54 µM | TGI (HOP-92 NSCLC): > 11 µM | TGI (SW-620 colon): > 16.5 µM | TGI (MDA-MB-435): > 14.4 µM | GI50 (ACHN renal): 3.59 µM | TGI (ACHN renal): > 10.9 µM | GI50 (SK-MEL-2 melanoma): 1.62 µM | TGI (SK-MEL-2 melanoma): 8.71 µM | TGI (MDA-MB-231 breast): > 17.8 µM | TGI (COLO 205 colon): > 13.8 µM | GI50 (HCC-2998 colon): 2.58 µM | TGI (DU-145 prostate): > 13.8 µM | TGI (A498 renal): > 9.75 µM | TGI (SK-OV-3 ovarian): > 31 µM
